# Laboratory results from patent US8912359B2, “Bisbenzamidines for the treatment of pneumonia” (University of Cincinnati, priority 2003, dated 2014).
# Like-named read-outs stand apart in the source and are kept apart here.
# Experiments:
# [1] = tested on: Pneumocystis; experiment: Pneumocystis ATP detection assay; type: cell-based, P. carinii; conditions: for Anti-Pneumocystis Activity: semi-qualitative scale from highly active to no activity, based on IC50; for IC50: concentration reducing ATP content of Pneumocystis populations by 50% vs untreated controls, 48 hours exposure (Table 1 title)
# Excerpt: An ATP assay system (Cushion, Chen et al., 1997; Chen & Cushion, 1994; Collins & Cushion, 2001) was used to evaluate bisbenzamidine analogues as potential therapeutic targets for treatment of pneumonia, particularly that caused by species in the genus Pneumocystis. […]. Development of these compounds could provide new and novel treatment choices for Pneumocystis pneumonia.
# A series of novel bisbenzamidines linked by either a rigid (for instance, a phenylene diamide) or a flexible (for instance, a propyl diamide) core are described. Such compounds may be used for the treatment of infections, such as pneumonia and for instance, pneumonia caused by Pneumocystis.
# The structure-activity relationships for the piperazine-linked bisbenzamidines and the toxicities of each compound in three different mammalian cell lines are shown in the following tables. Compounds are ranked in order of the lowest concentration necessary to reduce the ATP content of Pneumocystis populations by 50% (i.e., the IC50) compared to untreated control populations. Note that the IC50 values are expressed on a microgram per milliliter and micromolar basis. […];
# [2] = tested on: Calf thymus DNA; experiment: DNA Binding ΔTm, calf thymus
# [3] = tested on: Poly (dA-dT); experiment: DNA Binding ΔTm, Poly (dA-dT)
# [4] = tested on: A549 lung epithelial cells
# Excerpt: (§1) Two transformed cell lines derived from two different organ systems and a primary cell line were chosen for evaluation of the relative toxicity of each compound. […] The Hep-G2 cell line is an epithelial cell line derived from a human hepatocellular carcinoma, and WI-38 is a human diploid cell line derived from normal embryonic (3 months of gestation) lung tissue.
# [5] = tested on: WI-38; experiment: toxicity to WI-38 cell line (ATP system)
# Excerpt: as §1
DNA Binding ΔTm Poly (dA-dT) [3] [°C],SMILES,Anti-Pneumocystis Activity [1],DNA Binding ΔTm Calf thymus [2] [°C],IC50 [1] [µg/mL],toxicity in A549 line ([4]; human),toxicity in A549 line [4],toxicity in WI-38 line [5],Anti-Pneumocystis Activity ([1]; listed as —C2H5)
10.1,"CCCCCCNC(=N)c1ccc(N2CCN(c3ccc(C(=N)NCCCCCC)cc3)CC2)cc1 [compound 3, 4,4′-(1,4-piperazinediyl)bis(N-hexylbenzenecarboximidamide)]",Highly Active,10.7,,,,,
2.7,"CCCCCCCCCNC(=N)c1ccc(N2CCN(c3ccc(C(=N)NCCCCCCCCC)cc3)CC2)cc1 [compound 14, 4,4′-(1,4-piperazinediyl)bis(N-nonylbenzenecarboximidamide)]",Marked,1.3,,,,,
0.0,"CCCCCCCCCCCCNC(=N)c1ccc(N2CCN(c3ccc(C(=N)NCCCCCCCCCCCC)cc3)CC2)cc1 [compound 15, 4,4′-(1,4-piperazinediyl)bis(N-dodecylbenzenecarboximidamide)]",Marked,0.6,,not the A549 line,,,
8.5,"CCCCCCCNC(=N)c1ccc(N2CCN(c3ccc(C(=N)NCCCCCCC)cc3)CC2)cc1 [compound 5, 4,4′-(1,4-piperazinediyl)bis(N-heptylbenzenecarboximidamide)]",Very Marked,8.7,,,without toxicity,without toxicity,
18.6,"CCNC(=N)c1ccc(N2CCN(c3ccc(C(=N)NCC)cc3)CC2)cc1 [compound 16, 4,4′-(1,4-piperazinediyl)bis(N-ethylbenzenecarboximidamide)]",marked,15.3,0.542,,,,Marked
,"CCCCCCCCNC(=N)c1ccc(N2CCN(c3ccc(C(=N)NCCCCCCCC)cc3)CC2)cc1 [compound 11, 4,4′-(1,4-piperazinediyl)bis(N-octylbenzenecarboximidamide)]",Marked,4.2,,,,,
,"CCCCCCCCCCNC(=N)c1ccc(N2CCN(c3ccc(C(=N)NCCCCCCCCCC)cc3)CC2)cc1 [compound 18, 4,4′-(1,4-piperazinediyl)bis(N-decylbenzenecarboximidamide)]",Marked,1.3,,,,,
22.5,"CCCCCNC(=N)c1ccc(N2CCN(c3ccc(C(=N)NCCCCC)cc3)CC2)cc1 [compound 2, 4,4′-(1,4-piperazinediyl)bis(N-pentylbenzenecarboximidamide)]",Highly Active,16.9,,,,,

SMILES,DNA Binding ΔTm Poly (dA-dT) [3] [°C],Anti-Pneumocystis Activity [1],DNA Binding ΔTm Calf thymus [2] [°C],IC50 [1] [µg/mL],toxicity in A549 line ([4]; human),toxicity in A549 line [4],toxicity in WI-38 line [5],Anti-Pneumocystis Activity ([1]; listed as —C2H5)
"N=C(N)c1ccc(OCCCCCOc2ccc(C(=N)N)cc2)cc1 [Pentamidine, reference compound]",20.6,marked,11.1,0.3,,,,
